Marks after values point to notes of the source that are not given here. One block for each compound: values may come before it.
Experiments:
[1] = molecular target: T1, Monoamine oxidase A (MAO A) (Homo sapiens, UniProt P21397); conditions: Vermeiren et al. 2015; cited from earlier work
T1 sequence (P21397 1-527): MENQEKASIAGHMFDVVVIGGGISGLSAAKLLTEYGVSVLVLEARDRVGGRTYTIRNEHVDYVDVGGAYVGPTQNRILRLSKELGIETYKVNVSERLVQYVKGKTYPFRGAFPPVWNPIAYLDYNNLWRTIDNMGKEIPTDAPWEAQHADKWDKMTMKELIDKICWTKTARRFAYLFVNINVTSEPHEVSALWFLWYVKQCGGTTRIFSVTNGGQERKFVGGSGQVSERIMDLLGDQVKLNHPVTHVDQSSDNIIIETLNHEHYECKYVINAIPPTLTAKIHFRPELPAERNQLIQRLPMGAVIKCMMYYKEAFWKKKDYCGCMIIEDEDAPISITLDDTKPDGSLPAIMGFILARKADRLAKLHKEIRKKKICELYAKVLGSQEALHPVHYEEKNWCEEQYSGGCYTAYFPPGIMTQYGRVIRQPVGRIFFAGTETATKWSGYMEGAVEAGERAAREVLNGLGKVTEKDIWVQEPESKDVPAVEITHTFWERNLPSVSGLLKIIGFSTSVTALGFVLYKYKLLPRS

Tau = Tau (Homo sapiens, UniProt P10636); experiment: Tau competition binding in human AD brain homogenate with 18F-labeled Tau binder; parameters: High affinity to Tau (IC50 in AD brain homogenate): key: −: poor; ∘: moderate; +: good; ++: very good; +++: excellent; conditions: determined with non-radioactive F-1, F-2, F-3a; for IC50: human AD brain homogenate, read-out: IC50 for tau binding in AD brain homogenate
Chain of Tau (P10636 623-708 limits assumed): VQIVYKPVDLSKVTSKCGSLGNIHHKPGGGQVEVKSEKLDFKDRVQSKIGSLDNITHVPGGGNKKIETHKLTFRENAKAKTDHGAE
Description: 20 μg of human Alzheimer disease brain homogenate was incubated with a dilution series of each test compound (1000 to 0.06 nM) in the presence of 800 Bq of ^18F-labeled Tau binder. The samples were shaken at 110 rpm for 45 min at 37° C. Samples were then filtered through GF/B 96 well filter plates and washed twice with 300 μL assay buffer (PBS containing 0.1% BSA and 2% DMSO). Thereafter, filter plates were sealed and a Fuji Film Imaging Plate (BAS-SR2025) was placed on top. The imaging plate was analyzed after overnight exposition using a Fuji Film BAS-5000. Non-specific signal was determined with samples containing ^18F-labeled Tau-reference binder in the presence of assay buffer without brain substrate and competitor. […] The unblocked ^18F-labeled Tau-binder signal was defined as total binding. IC50 values were calculated by Prism V6 (GraphPad) setting total binding to 100%.

MAO A = molecular target: T2, MAO A (Mus musculus, UniProt Q64133); experiment: MAO A 18F-FEH competition assay in mouse brain homogenate; format: binding; parameters: Low affinity to MAO A (IC50 in mouse brain homogenate): key to the marks not given beside the values; conditions: for IC50: 18F-FEH competition, read-out: IC50 MAO A in mouse brain homogenate
T2 construct: from tissue; host or cells: whole mouse brain homogenate
T2 sequence (Q64133 1-526): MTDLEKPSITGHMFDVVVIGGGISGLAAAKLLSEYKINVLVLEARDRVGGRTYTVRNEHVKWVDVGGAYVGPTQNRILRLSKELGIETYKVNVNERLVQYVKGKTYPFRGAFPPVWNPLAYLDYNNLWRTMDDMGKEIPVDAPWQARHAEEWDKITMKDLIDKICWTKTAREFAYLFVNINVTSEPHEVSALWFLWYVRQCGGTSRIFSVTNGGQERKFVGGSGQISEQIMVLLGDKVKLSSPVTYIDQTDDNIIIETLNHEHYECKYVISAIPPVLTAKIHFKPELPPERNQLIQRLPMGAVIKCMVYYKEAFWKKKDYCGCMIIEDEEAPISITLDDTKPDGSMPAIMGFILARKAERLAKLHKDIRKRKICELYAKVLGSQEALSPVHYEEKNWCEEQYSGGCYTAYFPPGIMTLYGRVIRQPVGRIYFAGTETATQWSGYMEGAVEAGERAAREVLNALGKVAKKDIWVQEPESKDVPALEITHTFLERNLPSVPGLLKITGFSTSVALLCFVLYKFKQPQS

[2] = tested on: Tau (AD brain homogenate vs HC brain homogenate); experiment: Tracer signal in AD brain homogenate vs healthy control brain homogenate; format: binding, human; parameters: High signal to noise (AD brain homogenate/HC brain homogenate) / High signal to noise (further homogenates): key to the marks not given beside the values; conditions: for Ratio of tracer signal in AD brain homogenates/signal in HC brain homogenates: further homogenates
Tau pathology = experiment: Human imaging study (dynamic PET); format: in vivo
Description: In a clinical trial, subjects with AD or PSP as well as non-demented controls (NDC) underwent dynamic PET imaging for over 3 h following 370 MBq bolus injection of ^18F-3a.

[3] = tested on: Tau (AD brain vs mouse brain homogenate); experiment: Tracer signal in AD brain vs mouse brain homogenate; format: binding, human / mouse; parameters: High signal to noise (AD brain/mouse brain homogenate): key: −: poor; ∘: moderate; +: good; ++: very good; +++: excellent
[4] = tested on: Tau in human brain sections (AD, PSP, PiD, HC); experiment: Autoradiography in human brain slices; format: binding
Description: 18 micron thick frozen human brain slices and 6 micron thick human FFPE brain slices were examined via autoradiography. Brain sections were equilibrated for at least 1 h in 1×PBS solution prior to use in the experiment. Each brain section was covered with a solution of the ^18F-labeled tracer (200 Bq/μl, 500 μl) in 1×PBS. For blocking experiments with the corresponding ^19F-compound, an excess of the blocking compound (10 μM) was mixed with the ^18F-compound. The brain sections were allowed to incubate with the tracer solution at room temperature for 1 h, drained afterwards and placed in a slide holder. The slides were then washed sequentially with 1×PBS for 1 min; 70% EtOH in 1×PBS for 2 min; 30% EtOH in 1×PBS for 2 min; and 1×PBS for 1 min. The slides were allowed to air-dry before being placed on Fuji imaging plates […] for overnight exposure. The imaging plates were scanned and the signal was measured using Fuji software to produce an autoradiographic image of the brain section.

- IC50 (Tau): < 2 nM
- IC50 (MAO A; non-radioactive derivatives): 22 nM
SMILES: [18F]c1ccc(-c2ccc3c(c2)[nH]c2ccncc23)cn1 [^18F-1]
- Kd [1]: 1.5 nM

- IC50 (Tau): < 2 nM
- IC50 (MAO A; non-radioactive derivatives): 475 nM
SMILES: [18F]c1ccc(-c2ccc3c(n2)[nH]c2ccncc23)cn1 [^18F-2]

- High affinity to Tau (IC50 in AD brain homogenate) (Tau; grade): +++
- IC50 (Tau): < 2 nM
- Brain uptake in human subjects (Tau pathology; 370 MBq bolus injection, PET): good
- Washout from non-target brain regions in human subjects (Tau pathology; 370 MBq bolus injection, PET): fast
- IC50 (MAO A; non-radioactive derivatives): 1400 nM
- Low affinity to MAO A (IC50 in mouse brain homogenate) (MAO A; grade, non-radioactive derivatives): +++
- Fold higher MAO A IC50 than compound 18F-1 (MAO A; whole mouse brain homogenate): 64 fold
- Fold higher MAO A IC50 than compound 18F-2 (MAO A; whole mouse brain homogenate): 3 fold
- Binding to AD brain (Braak stage 1/3), autoradiography on human brain slices ([4]; grade, in house data): +++^a)
- Binding to AD brain (Braak stage 5/6), autoradiography on human brain slices ([4]; grade, in house data): +++^a)
- Binding to PSP, autoradiography on human brain slices ([4]; grade, in house data): +++^a)
- Binding to PiD, autoradiography on human brain slices ([4]; grade, in house data): +++^a)
SMILES: [18F]c1cc(-c2ccc3c(n2)[nH]c2ccncc23)ccn1 [^18F-3a]
- Fold higher signal to noise ratio than 18F-1 ([2]; AD brain homogenate vs HC brain homogenate): 5.2 fold
- Fold higher signal to noise ratio than 18F-1 ([2]; further AD brain homogenates vs HC brain homogenate): 8.2-13.5 fold
- Ratio of tracer signal in AD brain homogenates/signal in HC brain homogenates ([2]; first of 3 values): 14.0
- Ratio of tracer signal in AD brain homogenates/signal in HC brain homogenates ([2]; second of 3 values): 17.9
- Ratio of tracer signal in AD brain homogenates/signal in HC brain homogenates ([2]; third of 3 values): 33.8
- High signal to noise (further homogenates) ([2]; grade, 3 different AD brain homogenates): +++
- High signal to noise (AD brain homogenate/HC brain homogenate) ([2]; grade, 18F tracers): ++
- Uptake in temporal, parietal and frontal lobes (Tau pathology; AD subjects): focal asymmetric uptake
- Uptake in globus pallidus and substantia nigra (Tau pathology; PSP subjects): focal increased uptake
- Uptake in choroid plexus, basal ganglia, striatum, amygdala, meninges or other off-target regions (Tau pathology; non-demented controls (NDC)): no increased uptake
- Ratio of tracer signal in AD brain/signal in mouse brain homogenate ([3]; 18F tracers): 9.2^a
- Fold higher signal to noise ratio than 18F-1 ([3]; AD brain homogenate vs whole mouse brain homogenate): 4.2 fold
- High signal to noise (AD brain/mouse brain homogenate) ([3]; grade): ++
- Autoradiography signal in PSP brain sections [4]: strong signal
- Autoradiography signal in PiD brain sections [4]: strong signal
- Autoradiography signal in healthy control (HC) sections [4]: no specific signal
- Autoradiography signal in AD brain sections ([4]; blockable with excess cold compound): strong punctated staining

Source: patent US10835624B2, “Compounds for imaging Tau protein aggregates” (AC IMMUNE S.A., priority 2016, dated 2020)
